Data on 29 compounds can be found in patent US20260334439A1, “BCAT2 INHIBITORS” (Agios Pharmaceuticals, Inc., priority 2023, published 2026).

This assay has as its target T1, BCAT2 (Homo sapiens, UniProt O15382).
T1 sequence (O15382 28-392): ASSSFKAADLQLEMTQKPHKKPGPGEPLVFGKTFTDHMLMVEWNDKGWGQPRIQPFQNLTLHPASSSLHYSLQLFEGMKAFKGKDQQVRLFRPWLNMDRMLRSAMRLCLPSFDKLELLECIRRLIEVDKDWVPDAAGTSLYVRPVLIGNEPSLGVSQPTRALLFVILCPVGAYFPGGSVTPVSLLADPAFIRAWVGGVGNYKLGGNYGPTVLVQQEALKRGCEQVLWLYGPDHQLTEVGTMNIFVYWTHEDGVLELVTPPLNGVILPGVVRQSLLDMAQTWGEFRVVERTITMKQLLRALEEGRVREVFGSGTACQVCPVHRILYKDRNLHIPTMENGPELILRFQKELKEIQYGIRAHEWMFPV
Briefly: BCAT2 in vitro enzyme inhibition assay (hBCAT2, glutamate dehydrogenase/diaphorase/resazurin coupled fluorescence read). It is filed as biochemical. Particulars: hBCAT2, 1 h preincubation at 25° C., one hour reaction; average where tested multiple times. A digest of the protocol: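 hBCAT2 (0.33 μg/mL in mix) preincubated 1 h at 25 °C with compound (top 100 μM, 3-fold, 10 points) in Tris pH 8.0/NaCl/BSA; substrate mix added (L-leucine, α-ketoglutarate, GDH, NAD, diaphorase, resazurin), quenched with SDS after 1 h, fluorescence Ex 540/Em 590; duplicates, repeat tests averaged.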
For orientation: Alamar Blue is a resazurin reagent that responds to reducing activity.
The term IC50 denotes the midpoint of a concentration-inhibition curve. Regarding `CC(=O)N1C[C@@H](N2Cc3ccc(F)cc3C2=O)C[C@@H](n2c(-c3ccccc3F)nc3cnc(-n4nccn4)cc32)C1` [Example 199, 2-((3S,5R)-1-acetyl-5-(2-(2-fluorophenyl)-6-(2H-1,2,3-triazol-2-yl)-1H-imidazo[4,5-c]pyridin-1-yl)piperidin-3-yl)-6-fluoroisoindolin-1-one], the IC50 was less than 100 nM.

As for `N#Cc1ccccc1-c1nc2cnc(-c3nc[nH]n3)cc2n1[C@@H]1CCC[C@H](N2COc3ccc(Cl)cc3C2=O)C1` [Example 203, 2-(1-((1R,3S)-3-(6-chloro-4-oxo-2H-benzo[e][1,3]oxazin-3(4H)-yl)cyclohexyl)-6-(1H-1,2,4-triazol-3-yl)-1H-imidazo[4,5-c]pyridin-2-yl)benzonitrile], the half-inhibitory concentration (IC50) was less than 100 nM.

Compound `NC(=O)c1ccccc1-c1nc2cnc(-c3nc[nH]n3)cc2n1[C@@H]1CCC[C@H](N2COc3ccc(Cl)cc3C2=O)C1` [Example 207, 2-(1-((1R,3S)-3-(6-chloro-4-oxo-2H-benzo[e][1,3]oxazin-3(4H)-yl)cyclohexyl)-6-(1H-1,2,4-triazol-3-yl)-1H-imidazo[4,5-c]pyridin-2-yl)benzamide] had an IC50 of less than 100 nM.

In the case of `N#Cc1ccccc1-c1nc2cnc(-c3nc[nH]n3)cc2n1[C@@H]1CCC[C@H](N2COc3ccc(F)cc3C2=O)C1` [Example 210, 2-(1-((1R,3S)-3-(6-fluoro-4-oxo-2H-benzo[e][1,3]oxazin-3(4H)-yl)cyclohexyl)-6-(1H-1,2,4-triazol-3-yl)-1H-imidazo[4,5-c]pyridin-2-yl)benzonitrile], the IC50 is less than 100 nM.

As to `O=C1c2cc(Cl)ccc2OCCN1[C@H]1CCC[C@@H](n2c(-c3ccccc3F)nc3cnc(-c4nc[nH]n4)cc32)C1` [Example 216, 7-chloro-4-((1S,3R)-3-(2-(2-fluorophenyl)-6-(1H-1,2,4-triazol-3-yl)-1H-imidazo[4,5-c]pyridin-1-yl)cyclohexyl)-3,4-dihydrobenzo[f][1,4]oxazepin-5(2H)-one], the IC50 was more than 1000 nM.

For `CO[C@@H]1C[C@@H](NC(=O)c2cc(F)ccn2)C[C@@H](n2c(-c3ccccc3F)nc3ccc(-c4nc[nH]n4)cc32)C1` [Example 220, 4-fluoro-N-((1R,3S,5S)-3-(2-(2-fluorophenyl)-6-(1H-1,2,4-triazol-3-yl)-1H-benzo[d]imid-azol-1-yl)-5-methoxycyclohex-yl)picolinamide], the IC50 was more than 1000 nM.

Take `O=C(N[C@H]1CCC[C@@H](n2c(-c3ncccc3F)nc3ccc(-c4nc[nH]n4)cc32)[C@@H]1O)c1cc(F)ccc1F` [Example 222, 2,5-difluoro-N-((1S,2R,3R)-3-(2-(3-fluoropyridin-2-yl)-6-(1H-1,2,4-triazol-3-yl)-1H-benzo[d]imidazol-1-yl)-2-hydroxycyclo-hexyl)benzamide]: the IC50 lay within 100 to 500 nM.

In the case of `CO[C@H]1C[C@H](NC(=O)c2cc(F)ccn2)C[C@H](n2c(-c3ccccc3OCCO)nc3ccc(-c4ncco4)cc32)C1` [Example 223, 4-fluoro-N-((1R,3S,5S)-3-(2-(2-(2-hydroxyethoxy)phenyl)-6-(oxazol-2-yl)-1H-benzo[d]imid-azol-1-yl)-5-methoxycyclohex-yl)picolinamide], the concentration for half-maximal inhibition (IC50) was in the range of 100 to 500 nM.

For `CO[C@H]1C[C@H](NC(=O)c2cc(F)ccn2)C[C@H](n2c(-c3ccccc3OCCO)nc3ccc(-c4ncccn4)cc32)C1` [Example 224, 4-fluoro-N-((1R,3S,5S)-3-(2-(2-(2-hydroxyethoxy)phenyl)-6-(pyrimidin-2-yl)-1H-benzo[d]imidazol-1-yl)-5-methoxycyclo-hexyl)picolinamide], the IC50 was less than 100 nM.

As to `O=C(N[C@H]1CCC[C@@H](n2c(-c3ccccc3F)nc3ccc(-c4nc[nH]n4)cc32)[C@@H]1O)c1cc(F)ccc1F` [Example 225, 2,5-difluoro-N-((1S,2R,3R)-3-(2-(2-fluorophenyl)-6-(1H-1,2,4-triazol-3-yl)-1H-benzo[d]imid-azol-1-yl)-2-hydroxycyclohex-yl)benzamide], the half-inhibitory concentration (IC50) is less than 100 nM.

In the case of `O=C(N[C@H]1CCC[C@@H](n2c(-c3ccccc3OCCO)nc3ccc(-c4nc[nH]n4)cc32)C1)c1cc(F)ccc1F` [Example 228, 2,5-difluoro-N-((1S,3R)-3-(2-(2-(2-hydroxyethoxy)phenyl)-6-(1H-1,2,4-triazol-3-yl)-1H-benzo[d]imidazol-1-yl)cyclo-hexyl)benzamide], the IC50 was less than 100 nM.

`O=C(N[C@H]1CCC[C@@H](n2c(-c3ccccc3OCCO)nc3ccc(-c4nc[nH]n4)cc32)C1)c1cc(Cl)ccc1F` [Example 229, 5-chloro-2-fluoro-N-((1S,3R)-3-(2-(2-(2-hydroxyethoxy)phenyl)-6-(1H-1,2,4-triazol-3-yl)-1H-benzo[d]imidazol-1-yl)cyclohex-yl)benzamide] returned a 50% inhibitory concentration (IC50) of less than 100 nM.

With `O=C(N[C@@H]1C[C@H](n2c(-c3ccccc3OCCO)nc3ccc(-c4nc[nH]n4)cc32)CC(F)(F)C1)c1cc(F)ccn1` [Example 231, N-((1R,5S)-3,3-difluoro-5-(2-(2-(2-hydroxyethoxy)phenyl)-6-(1H-1,2,4-triazol-3-yl)-1H-benzo[d]imidazol-1-yl)cyclohexyl)-4-fluoropicolinamide], the 50% inhibitory concentration (IC50) was less than 100 nM.

The compound `O=C(N[C@H]1C[C@@H](n2c(-c3ccccc3OCCO)nc3ccc(-c4nc[nH]n4)cc32)CC(F)(F)C1)c1cc(F)ccn1` [Example 232, N-((1S,5R)-3,3-difluoro-5-(2-(2-(2-hydroxyethoxy)phenyl)-6-(1H-1,2,4-triazol-3-yl)-1H-benzo[d]imidazol-1-yl)cyclohexyl)-4-fluoropicolinamide] came in with an IC50 of 100 to 500 nM.

`CN1C[C@H](NC(=O)c2cc(Cl)ccn2)C[C@H](n2c(-c3ccccc3OCCO)nc3ccc(-c4ncccn4)cc32)C1` [Example 234, 4-chloro-N-((3R,5S)-5-(2-(2-(2-hydroxyethoxy)phenyl)-6-(pyr-imidin-2-yl)-1H-benzo[d]imid-azol-1-yl)-1-methylpiperidin-3-yl)picolinamide]: the IC50 was less than 100 nM.

Compound `CN1C[C@@H](NC(=O)c2cc(Cl)ccn2)C[C@@H](n2c(-c3ccccc3OCCO)nc3ccc(-c4ncccn4)cc32)C1` [Example 235, 4-chloro-N-((3S,5R)-5-(2-(2-(2-hydroxyethoxy)phenyl)-6-(pyr-imidin-2-yl)-1H-benzo[d]imid-azol-1-yl)-1-methylpiperidin-3-yl)picolinamide] gave an IC50 of more than 1000 nM.

Take `CN1C[C@H](NC(=O)c2cc(F)ccn2)C[C@H](n2c(-c3ccccc3OCCO)nc3ccc(-c4ncccn4)cc32)C1` [Example 236, 4-fluoro-N-((3R,5S)-5-(2-(2-(2-hydroxyethoxy)phenyl)-6-(pyr-imidin-2-yl)-1H-benzo[d]imid-azol-1-yl)-1-methylpiperidin-3-yl)picolinamide]: the IC50 is 100 to 500 nM.

Consider `CN1C[C@@H](NC(=O)c2cc(F)ccn2)C[C@@H](n2c(-c3ccccc3OCCO)nc3ccc(-c4ncccn4)cc32)C1` [Example 237, 4-fluoro-N-((3S,5R)-5-(2-(2-(2-hydroxyethoxy)phenyl)-6-(pyr-imidin-2-yl)-1H-benzo[d]imid-azol-1-yl)-1-methylpiperidin-3-yl)picolinamide], for which the IC50 is more than 1000 nM.

In turn, `N[C@H]1[C@H](n2c(-c3ccccc3F)nc3ccc(-c4nc[nH]n4)cc32)CCC[C@@H]1N1Cc2ccc(Cl)cc2C1=O` [Example 242, 2-((1S,2S,3R)-2-amino-3-(2-(2-fluorophenyl)-6-(1H-1,2,4-triazol-3-yl)-1H-benzo[d]imidazol-1-yl)cyclohexyl)-6-chloroisoindolin-1-one] registered an IC50 of less than 100 nM.

Consider `CN1C[C@@H](N2Cc3ccc(F)cc3C2=O)C[C@@H](n2c(-c3ccccc3OCCO)nc3ccc(-c4ncccn4)cc32)C1` [Example 244, 6-fluoro-2-((3S,5R)-5-(2-(2-(2-hydroxyethoxy)phenyl)-6-(pyr-imidin-2-yl)-1H-benzo[d]imid-azol-1-yl)-1-methylpiperidin-3-yl)isoindolin-1-one], for which the 50% inhibitory concentration (IC50) lay within 500 to 1000 nM.

On to `O=C(N[C@H]1CCC[C@@H](n2c(-c3ncccc3F)nc3cnc(-c4nc[nH]n4)cc32)C1)c1cc(Cl)ccc1OC(F)F` [compound 47], for which the IC50 is less than 100 nM.

`O=C(N[C@H]1CCC[C@@H](n2c(-c3ccccc3F)nc3cnc(-c4nc[nH]n4)cc32)C1)c1cc(Cl)ccc1OC(F)F` [compound 50] yielded a concentration for half-maximal inhibition (IC50) of less than 100 nM.

`O=C(N[C@H]1CCC[C@@H](n2c(-c3ccccc3OC(F)F)nc3cnc(-c4nc[nH]n4)cc32)C1)c1cc(Cl)ccc1OC(F)F` [compound 51] gave an IC50 of less than 100 nM.

Turning to `O=C(N[C@H]1CCC[C@@H](n2c(-c3ccccc3OC(F)F)nc3cnc(-c4nc[nH]n4)cc32)C1)c1cc(Cl)ccn1` [compound 52], the IC50 was less than 100 nM.

`O=C(N[C@H]1CCC[C@@H](n2c(-c3ncccc3OC(F)F)nc3cnc(-c4nc[nH]n4)cc32)C1)c1cc(F)ccc1F` [compound 61] registered an IC50 of less than 100 nM.

Take `O=C(N[C@H]1CCC[C@@H](n2c(-c3ncccc3OC(F)F)nc3cnc(-c4nc[nH]n4)cc32)C1)c1cc(Cl)ccn1` [compound 62]: the IC50 is less than 100 nM.

The compound `O=C(N[C@H]1CCC[C@@H](n2c(-c3ncccc3OC(F)F)nc3cnc(-c4nc[nH]n4)cc32)C1)c1cc(F)ccn1` [compound 63] registered an IC50 of less than 100 nM.

Compound `COc1ccnc(C(=O)N[C@H]2CCC[C@@H](n3c(-c4ncccc4OC(F)F)nc4cnc(-c5nc[nH]n5)cc43)C2)c1` [compound 64] showed a 50% inhibitory concentration (IC50) of less than 100 nM.

`CC(C)Oc1ccc(Cl)cc1C(=O)N[C@H]1CCC[C@@H](n2c(-c3ncccc3OC(F)F)nc3cnc(-c4nc[nH]n4)cc32)C1` [compound 65] had an IC50 of less than 100 nM.
